The source of these data is US20210379016A1, “THERAPEUTICS AND METHODS OF TREATMENT OF ANGIOTENSIN-CONVERTING ENZYME 2 ASSOCIATED CONDITIONS” (Board of Supervisors of Louisiana State University and …, priority 2020, published 2021).

For orientation: Ki means a measure of affinity in units of concentration, obtained from inhibition or displacement. The term IC50 denotes the midpoint of a concentration-inhibition curve.

One assay concerns the target Sigmar1 (Homo sapiens, UniProt Q99720). The following applies: cited from earlier work; for Ki: read-out: binding affinity Ki for Sigmar1.
Assay [1] relates to ACE2 expression in HEK-293 cells. As to the kind of experiment: ACE2 expression in HEK-293 cells treated with Sigmar1 ligands for 24 hours. It counts as cell-based. The note with it: 24 hours treatment.

SMILES strings stand for the structures. Entries after “also recorded” stand apart in the source; their conditions may differ.

Sequence of Sigmar1 (Q99720 whole entry, species assumed): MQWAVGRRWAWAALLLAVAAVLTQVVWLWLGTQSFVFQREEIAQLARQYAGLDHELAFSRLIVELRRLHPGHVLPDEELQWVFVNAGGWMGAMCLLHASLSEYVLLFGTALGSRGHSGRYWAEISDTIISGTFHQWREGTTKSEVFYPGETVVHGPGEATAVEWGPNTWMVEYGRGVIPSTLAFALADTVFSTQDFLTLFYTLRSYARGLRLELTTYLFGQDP

With `c1ccc(CCN2CCCCC2)cc1` [AC927, 1-(2-phenylethyl) piperidine], the Ki at Sigmar1 is 30 ± 2 nM.
Regarding `CN1CCN(CCc2ccc(Cl)c(Cl)c2)CC1` [BD1063, 1-[2-(3,4-dichlorophenyl)ethyl]-4-methylpiperazine], at Sigmar1, the Ki was 9 ± 1 nM.
Regarding `CCN(CCc1ccc(Cl)c(Cl)c1)CCN1CCCC1` [BD1067, N-[2-(3,4-dichlorophenyl)ethyl]-N-ethyl-1-pyrrolidineethanamine], the Ki at Sigmar1 was 2 ± 0.5 nM.
On to `S=c1sc2ccccc2n1CCCCN1CCN(C2CCCCC2)CC1` [CM156, 3-(4-(4-cyclohexylpiperazin-1-yl)butyl) benzo [d]thiazole-2(3H)-thione], for which the “affinity for Sigmar1 (in words)” value at Sigmar1 was “nanomolar affinity”.
For the molecule `CCCN(CCC)CCc1ccc(OC)c(OCCc2ccccc2)c1` [NE-100, 4-methoxy-3-(2-phenylethoxy)-N,N-dipropylbenzeneethanamine], the ACE2 expression result in assay [1] is recorded as “significantly decreased the ACE2 expression; also recorded: decreases the ACE2 expression”.
For the molecule `COc1ccc(N2C[C@H](CN3CCC(O)(c4ccc5c(c4)OCO5)CC3)OC2=O)cc1` [Panamesine], the IC50 on Sigmar1 was 6 nM.
Take `CN[C@H]1CC[C@@H](c2ccc(Cl)c(Cl)c2)c2ccccc21` [Sertraline]: in assay [1], the ACE2 expression result is on record as “significantly decreased the ACE2 expression; also recorded: decreases the ACE2 expression”.
